Measurements reported in ChEMBL document CHEMBL4665811, “Sila-Ibuprofen” (J Med Chem, 2020).
In brackets after ≈: the same amount, converted by molar mass.

How the values were obtained:
C6 [1] = test: Toxicity in rat C6 cells assessed as effect on cellular viability up to 300 uM incubated for 72 hrs by WST1 assay; format: cell-based; details: c6, 72 h
C6 [2] = test: Toxicity in rat C6 cells assessed as effect on cell morphology at 1000 uM incubated for 3 days; format: cell-based; details: c6, 72 h, time 3 day
C6 [3] = test: Toxicity in rat C6 cells assessed as effect on cell proliferation at 300 uM incubated up to 3 days by LDH release assay; format: cell-based; details: c6, 72 h, time <=3 day
C6 [4] = test: Toxicity in rat C6 cells assessed as effect on extracellular lactate dehydrogenase activity at 1000 uM incubated for 3 days by LDH release assay; format: cell-based; details: c6, 72 h, time 3 day
C6 [5] = test: Toxicity in rat C6 cells assessed as effect on cell viability up to 300 uM incubated for 72 hrs by LDH release assay; format: cell-based; details: c6, 72 h
C6 [6] = test: Toxicity in rat C6 cells assessed as effect on cellular protein per well up to 300 uM incubated for 72 hrs; format: cell-based; details: c6, 72 h
C6 [7] = test: Toxicity in rat C6 cells assessed as effect on cellular lactate production to 300 uM incubated for 72 hrs; format: cell-based; details: c6, 72 h
C6 [8] = test: Toxicity in rat C6 cells assessed as reduction in cell proliferation at 1000 uM incubated up to 3 days by LDH release assay; format: cell-based; details: c6, 72 h, time <=3 day
C6 [9] = test: Toxicity in rat C6 cells assessed as effect on cellular viability at 1000 uM incubated up to 3 days by WST1 assay; format: cell-based; details: c6, 72 h, time <=3 day
[10] = molecular target: Prostaglandin G/H synthase 1 (Homo sapiens, UniProt P23219); test: Inhibition of human recombinant COX1 expressed in Sf9 cells using arachidonic acid and ADHP incubated for 3 mins by fluorimetry
Chain of Prostaglandin G/H synthase 1 (P23219 whole entry): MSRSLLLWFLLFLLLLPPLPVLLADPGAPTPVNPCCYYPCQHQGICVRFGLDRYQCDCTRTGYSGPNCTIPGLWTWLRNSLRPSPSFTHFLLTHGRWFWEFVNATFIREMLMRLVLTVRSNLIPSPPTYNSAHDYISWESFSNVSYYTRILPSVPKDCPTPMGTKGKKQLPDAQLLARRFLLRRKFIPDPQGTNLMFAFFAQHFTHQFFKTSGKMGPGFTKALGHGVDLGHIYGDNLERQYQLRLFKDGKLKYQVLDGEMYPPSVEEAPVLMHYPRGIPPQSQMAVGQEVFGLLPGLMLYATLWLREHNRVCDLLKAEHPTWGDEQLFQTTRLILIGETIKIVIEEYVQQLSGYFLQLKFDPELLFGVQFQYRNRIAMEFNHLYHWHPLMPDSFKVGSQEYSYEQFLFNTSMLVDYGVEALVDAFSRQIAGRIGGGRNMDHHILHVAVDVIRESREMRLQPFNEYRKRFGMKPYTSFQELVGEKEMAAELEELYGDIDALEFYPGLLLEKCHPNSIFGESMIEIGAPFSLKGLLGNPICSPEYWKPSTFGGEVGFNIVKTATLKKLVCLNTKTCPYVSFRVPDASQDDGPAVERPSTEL

C6 [11] = test: Toxicity in rat C6 cells assessed as reduction in protein content at 1000 uM incubated up to 3 days; format: cell-based; details: c6, 72 h, time <= day
[12] = molecular target: T1, Prostaglandin G/H synthase 2 (Homo sapiens, UniProt P35354); test: Inhibition of human recombinant COX2 expressed in Sf9 cells using arachidonic acid and ADHP incubated for 5 mins by fluorimetry
T1 sequence (P35354 whole entry): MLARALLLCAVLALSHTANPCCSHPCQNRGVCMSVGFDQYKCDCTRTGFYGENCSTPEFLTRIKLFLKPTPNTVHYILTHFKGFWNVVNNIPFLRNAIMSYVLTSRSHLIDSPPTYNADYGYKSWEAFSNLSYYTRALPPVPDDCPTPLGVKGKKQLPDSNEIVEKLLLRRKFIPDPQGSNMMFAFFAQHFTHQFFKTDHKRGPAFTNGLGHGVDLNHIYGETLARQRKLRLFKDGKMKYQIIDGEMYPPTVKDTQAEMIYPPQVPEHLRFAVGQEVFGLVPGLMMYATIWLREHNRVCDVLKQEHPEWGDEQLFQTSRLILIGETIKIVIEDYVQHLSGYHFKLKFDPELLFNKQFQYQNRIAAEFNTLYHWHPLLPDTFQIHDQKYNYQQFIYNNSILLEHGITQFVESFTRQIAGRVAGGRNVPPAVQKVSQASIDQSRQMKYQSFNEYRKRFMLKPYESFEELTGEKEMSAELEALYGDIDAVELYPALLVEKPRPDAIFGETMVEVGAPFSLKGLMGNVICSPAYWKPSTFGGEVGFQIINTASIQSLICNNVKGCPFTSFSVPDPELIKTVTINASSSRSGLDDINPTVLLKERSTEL

[13] = Solubility in water by HPLC/UV analysis; format: physicochemical

For `CC(C)Cc1ccc(C(C)C(=O)O)cc1` (stereo unspecified) [IBUPROFEN], the Activity (C6 [1]) was “Non-Toxic”, the Activity (C6 [2]) was “Non-Toxic” and the Activity (C6 [3]) was “Non-Toxic”. For the same compound, the Activity (C6 [4]) was “Non-Toxic”, the Activity (C6 [5]) was “Non-Toxic” and the Activity (C6 [6]) was “Non-Toxic”. The Activity (C6 [7]) was “Non-Toxic” and the Activity (C6 [8]) was “Toxic”.
In the case of `CC(C(=O)O)c1ccc(C[SiH](C)C)cc1` (stereo unspecified), the Activity (C6 [1]) is reported as “Non-Toxic”, the Activity (C6 [9]) is reported as “Toxic” and the Activity (C6 [2]) is reported as “Non-Toxic”. The Activity (C6 [3]) was “Non-Toxic”, the IC50 [10] was 26 µM and the Activity (C6 [4]) was “Non-Toxic”. The Activity (C6 [5]) was “Non-Toxic”, the Activity (C6 [11]) was “Toxic” and the IC50 [12] was 8.3 µM. The Activity (C6 [6]) was “Non-Toxic”, the Activity (C6 [7]) was “Non-Toxic” and the solubility [13] was 83 µg/mL (≈ 373 µM). For the same compound, the Activity (C6 [8]) was “Toxic”.
